Key:
[1] = target: Neuronal acetylcholine receptor subunit alpha-4 (Homo sapiens, UniProt P43681)
[2] = target: T1, 5-hydroxytryptamine receptor 1A (Homo sapiens, UniProt P08908); format: functional, cell-based
T1 sequence (P08908 whole entry): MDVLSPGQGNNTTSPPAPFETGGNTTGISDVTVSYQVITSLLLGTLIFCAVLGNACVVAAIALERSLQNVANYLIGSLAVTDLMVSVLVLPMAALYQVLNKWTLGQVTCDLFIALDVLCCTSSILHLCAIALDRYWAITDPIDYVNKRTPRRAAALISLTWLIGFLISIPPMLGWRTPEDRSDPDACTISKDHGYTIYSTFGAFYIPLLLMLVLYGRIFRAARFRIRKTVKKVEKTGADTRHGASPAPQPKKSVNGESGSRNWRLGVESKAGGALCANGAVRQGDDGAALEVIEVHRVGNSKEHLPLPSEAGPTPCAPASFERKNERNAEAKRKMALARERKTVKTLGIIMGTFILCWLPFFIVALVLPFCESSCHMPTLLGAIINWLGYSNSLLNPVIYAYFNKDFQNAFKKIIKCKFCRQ

[3] = target: Voltage-dependent L-type calcium channel subunit alpha-1C (Rattus norvegicus, UniProt P22002); format: functional
[4] = target: Glutamate receptor ionotropic, NMDA 1 (Rattus norvegicus, UniProt P35439)
[5] = target: T2, Muscarinic acetylcholine receptor M1 (Homo sapiens, UniProt P11229); format: functional
T2 sequence (P11229 whole entry): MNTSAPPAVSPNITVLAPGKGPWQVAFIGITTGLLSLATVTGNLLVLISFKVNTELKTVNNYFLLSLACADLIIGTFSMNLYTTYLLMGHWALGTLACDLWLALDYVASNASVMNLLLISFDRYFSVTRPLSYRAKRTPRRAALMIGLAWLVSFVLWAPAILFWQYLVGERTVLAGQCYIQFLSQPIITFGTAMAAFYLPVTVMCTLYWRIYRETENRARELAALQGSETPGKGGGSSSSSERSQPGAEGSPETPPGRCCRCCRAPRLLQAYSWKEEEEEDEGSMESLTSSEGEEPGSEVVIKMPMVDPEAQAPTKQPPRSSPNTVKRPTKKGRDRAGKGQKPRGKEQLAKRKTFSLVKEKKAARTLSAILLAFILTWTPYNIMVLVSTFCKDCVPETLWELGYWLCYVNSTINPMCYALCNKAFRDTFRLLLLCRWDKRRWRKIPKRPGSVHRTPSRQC

[6] = target: 5-hydroxytryptamine receptor 2B (Homo sapiens, UniProt P41595); format: functional, cell-based
[7] = target: T3, 5-hydroxytryptamine receptor 2C (Homo sapiens, UniProt P28335)
T3 sequence (P28335 whole entry): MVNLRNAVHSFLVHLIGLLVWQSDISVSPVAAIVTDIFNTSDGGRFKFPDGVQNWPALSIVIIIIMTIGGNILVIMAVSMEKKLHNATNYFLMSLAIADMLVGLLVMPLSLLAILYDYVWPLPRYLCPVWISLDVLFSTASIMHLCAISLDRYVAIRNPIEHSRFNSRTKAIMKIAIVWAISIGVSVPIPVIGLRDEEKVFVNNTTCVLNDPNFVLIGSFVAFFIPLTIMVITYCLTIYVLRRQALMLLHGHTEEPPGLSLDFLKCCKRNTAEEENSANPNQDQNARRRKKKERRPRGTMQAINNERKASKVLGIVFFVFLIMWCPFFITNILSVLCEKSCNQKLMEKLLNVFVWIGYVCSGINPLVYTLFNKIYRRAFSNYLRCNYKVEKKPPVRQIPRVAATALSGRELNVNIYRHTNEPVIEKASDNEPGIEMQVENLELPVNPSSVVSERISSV

[8] = target: T4, Alpha-2B adrenergic receptor (Homo sapiens, UniProt P18089)
T4 sequence (P18089 whole entry): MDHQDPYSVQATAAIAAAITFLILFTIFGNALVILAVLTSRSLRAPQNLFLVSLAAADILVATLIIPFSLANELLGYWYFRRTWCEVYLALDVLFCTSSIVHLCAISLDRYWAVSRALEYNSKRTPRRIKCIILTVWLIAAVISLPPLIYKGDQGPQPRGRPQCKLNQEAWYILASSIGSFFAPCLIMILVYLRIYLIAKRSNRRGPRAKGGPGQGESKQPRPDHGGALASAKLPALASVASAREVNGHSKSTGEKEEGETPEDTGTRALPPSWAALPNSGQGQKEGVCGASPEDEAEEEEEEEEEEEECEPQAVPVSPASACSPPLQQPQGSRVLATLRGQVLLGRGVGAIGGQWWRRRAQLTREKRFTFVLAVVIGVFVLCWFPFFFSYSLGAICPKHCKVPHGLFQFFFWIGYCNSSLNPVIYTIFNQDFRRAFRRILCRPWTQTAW

[9] = target: D(1A) dopamine receptor (Homo sapiens, UniProt P21728); format: functional, cell-based
[10] = target: Prostaglandin G/H synthase 1 (Homo sapiens, UniProt P23219); format: functional
[11] = target: Gamma-aminobutyric acid receptor subunit alpha-1/alpha-2/beta-2/gamma-2 (Homo sapiens, UniProt P14867+P18507+P47869+P47870); format: protein-complex assay
[12] = target: Voltage-gated inwardly rectifying potassium channel KCNH2 (Homo sapiens, UniProt Q12809); format: functional; conditions: read-out: AC50
[13] = target: Histamine H3 receptor (Homo sapiens, UniProt Q9Y5N1)
[14] = target: cGMP-inhibited 3',5'-cyclic phosphodiesterase 3A (Homo sapiens, UniProt Q14432); format: functional
Note: assay procedure not described here.

Chain of Gamma-aminobutyric acid receptor subunit alpha-1/alpha-2/beta-2/gamma-2 (P14867 whole entry): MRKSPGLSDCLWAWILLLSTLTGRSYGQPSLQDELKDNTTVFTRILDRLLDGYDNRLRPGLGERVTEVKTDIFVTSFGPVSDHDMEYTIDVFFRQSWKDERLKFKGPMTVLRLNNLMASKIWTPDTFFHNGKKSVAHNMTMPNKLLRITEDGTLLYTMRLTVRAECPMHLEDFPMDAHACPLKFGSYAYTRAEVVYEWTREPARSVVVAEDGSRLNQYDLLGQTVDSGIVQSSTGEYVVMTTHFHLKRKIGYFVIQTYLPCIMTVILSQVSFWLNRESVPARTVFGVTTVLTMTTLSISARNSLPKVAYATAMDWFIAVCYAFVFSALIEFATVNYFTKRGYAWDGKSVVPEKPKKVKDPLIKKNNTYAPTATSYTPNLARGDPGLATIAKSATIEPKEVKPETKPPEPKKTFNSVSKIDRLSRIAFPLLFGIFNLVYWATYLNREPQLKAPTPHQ
Chain of Gamma-aminobutyric acid receptor subunit alpha-1/alpha-2/beta-2/gamma-2 (P47870 whole entry): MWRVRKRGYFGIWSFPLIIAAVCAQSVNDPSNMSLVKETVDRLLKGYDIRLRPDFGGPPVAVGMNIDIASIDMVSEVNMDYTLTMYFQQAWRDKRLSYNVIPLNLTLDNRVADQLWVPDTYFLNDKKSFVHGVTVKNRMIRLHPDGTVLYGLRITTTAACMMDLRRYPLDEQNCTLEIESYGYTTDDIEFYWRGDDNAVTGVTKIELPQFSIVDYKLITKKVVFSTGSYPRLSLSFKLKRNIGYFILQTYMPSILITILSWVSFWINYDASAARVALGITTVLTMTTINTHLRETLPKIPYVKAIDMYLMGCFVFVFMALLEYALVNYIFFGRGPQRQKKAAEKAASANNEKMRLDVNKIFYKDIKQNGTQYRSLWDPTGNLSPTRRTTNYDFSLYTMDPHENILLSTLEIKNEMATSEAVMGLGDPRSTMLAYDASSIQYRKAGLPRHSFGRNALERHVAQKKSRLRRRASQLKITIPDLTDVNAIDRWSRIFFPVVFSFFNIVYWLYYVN
Chain of Gamma-aminobutyric acid receptor subunit alpha-1/alpha-2/beta-2/gamma-2 (P18507 whole entry): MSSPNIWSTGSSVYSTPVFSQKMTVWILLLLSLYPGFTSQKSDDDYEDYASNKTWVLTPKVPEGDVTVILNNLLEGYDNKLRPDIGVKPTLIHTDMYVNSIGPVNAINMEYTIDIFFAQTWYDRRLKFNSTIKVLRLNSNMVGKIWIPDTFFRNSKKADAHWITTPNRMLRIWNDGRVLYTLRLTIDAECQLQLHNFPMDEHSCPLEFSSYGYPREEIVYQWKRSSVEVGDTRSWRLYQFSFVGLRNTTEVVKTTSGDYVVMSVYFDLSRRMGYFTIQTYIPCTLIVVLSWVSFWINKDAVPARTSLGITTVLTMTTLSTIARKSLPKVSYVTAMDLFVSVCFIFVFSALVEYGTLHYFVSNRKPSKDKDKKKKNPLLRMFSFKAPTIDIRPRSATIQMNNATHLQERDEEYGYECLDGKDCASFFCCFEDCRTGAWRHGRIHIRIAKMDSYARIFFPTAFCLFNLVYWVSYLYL
Chain of Gamma-aminobutyric acid receptor subunit alpha-1/alpha-2/beta-2/gamma-2 (P47869 whole entry): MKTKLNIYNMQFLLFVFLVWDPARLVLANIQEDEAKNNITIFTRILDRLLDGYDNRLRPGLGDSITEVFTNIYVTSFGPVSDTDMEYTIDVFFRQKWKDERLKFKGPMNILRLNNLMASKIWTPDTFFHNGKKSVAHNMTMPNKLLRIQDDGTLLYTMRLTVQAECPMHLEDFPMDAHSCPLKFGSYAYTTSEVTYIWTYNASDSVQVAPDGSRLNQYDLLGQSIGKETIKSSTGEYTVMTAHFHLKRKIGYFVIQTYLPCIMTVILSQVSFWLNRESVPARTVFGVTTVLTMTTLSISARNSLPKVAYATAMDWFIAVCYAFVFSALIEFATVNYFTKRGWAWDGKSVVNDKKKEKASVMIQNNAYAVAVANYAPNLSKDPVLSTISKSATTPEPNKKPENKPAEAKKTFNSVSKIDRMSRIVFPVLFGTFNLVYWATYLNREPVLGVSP
Chain of Voltage-gated inwardly rectifying potassium channel KCNH2 (Q12809 whole entry): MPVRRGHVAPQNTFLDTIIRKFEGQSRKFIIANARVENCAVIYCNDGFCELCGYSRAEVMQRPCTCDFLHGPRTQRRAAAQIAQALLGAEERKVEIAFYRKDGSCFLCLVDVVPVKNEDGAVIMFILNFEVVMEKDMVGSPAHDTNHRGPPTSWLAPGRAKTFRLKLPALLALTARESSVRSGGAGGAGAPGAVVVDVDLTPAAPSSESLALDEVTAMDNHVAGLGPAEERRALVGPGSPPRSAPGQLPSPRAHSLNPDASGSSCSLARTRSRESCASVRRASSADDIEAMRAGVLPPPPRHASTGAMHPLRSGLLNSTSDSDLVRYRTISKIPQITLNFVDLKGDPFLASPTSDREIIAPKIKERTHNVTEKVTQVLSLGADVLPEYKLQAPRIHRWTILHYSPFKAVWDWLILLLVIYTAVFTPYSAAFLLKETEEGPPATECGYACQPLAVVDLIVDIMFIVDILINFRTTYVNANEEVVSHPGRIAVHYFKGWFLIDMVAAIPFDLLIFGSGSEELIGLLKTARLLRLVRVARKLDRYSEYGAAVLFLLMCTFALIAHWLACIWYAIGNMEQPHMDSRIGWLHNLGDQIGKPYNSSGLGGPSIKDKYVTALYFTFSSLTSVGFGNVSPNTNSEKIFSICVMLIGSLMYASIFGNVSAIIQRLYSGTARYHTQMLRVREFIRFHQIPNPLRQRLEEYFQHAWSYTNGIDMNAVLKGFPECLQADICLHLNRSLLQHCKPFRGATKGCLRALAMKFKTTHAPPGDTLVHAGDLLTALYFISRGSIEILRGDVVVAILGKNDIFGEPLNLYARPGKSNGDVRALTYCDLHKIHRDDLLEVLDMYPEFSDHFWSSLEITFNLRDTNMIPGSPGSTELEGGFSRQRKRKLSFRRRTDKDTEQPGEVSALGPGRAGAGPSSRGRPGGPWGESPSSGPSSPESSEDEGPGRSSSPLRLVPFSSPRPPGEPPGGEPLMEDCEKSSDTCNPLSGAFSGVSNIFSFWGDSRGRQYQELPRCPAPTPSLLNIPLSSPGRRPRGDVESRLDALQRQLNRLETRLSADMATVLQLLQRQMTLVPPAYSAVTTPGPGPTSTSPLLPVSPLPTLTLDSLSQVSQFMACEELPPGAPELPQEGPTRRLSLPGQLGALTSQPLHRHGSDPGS
Chain of Neuronal acetylcholine receptor subunit alpha-4 (P43681 whole entry): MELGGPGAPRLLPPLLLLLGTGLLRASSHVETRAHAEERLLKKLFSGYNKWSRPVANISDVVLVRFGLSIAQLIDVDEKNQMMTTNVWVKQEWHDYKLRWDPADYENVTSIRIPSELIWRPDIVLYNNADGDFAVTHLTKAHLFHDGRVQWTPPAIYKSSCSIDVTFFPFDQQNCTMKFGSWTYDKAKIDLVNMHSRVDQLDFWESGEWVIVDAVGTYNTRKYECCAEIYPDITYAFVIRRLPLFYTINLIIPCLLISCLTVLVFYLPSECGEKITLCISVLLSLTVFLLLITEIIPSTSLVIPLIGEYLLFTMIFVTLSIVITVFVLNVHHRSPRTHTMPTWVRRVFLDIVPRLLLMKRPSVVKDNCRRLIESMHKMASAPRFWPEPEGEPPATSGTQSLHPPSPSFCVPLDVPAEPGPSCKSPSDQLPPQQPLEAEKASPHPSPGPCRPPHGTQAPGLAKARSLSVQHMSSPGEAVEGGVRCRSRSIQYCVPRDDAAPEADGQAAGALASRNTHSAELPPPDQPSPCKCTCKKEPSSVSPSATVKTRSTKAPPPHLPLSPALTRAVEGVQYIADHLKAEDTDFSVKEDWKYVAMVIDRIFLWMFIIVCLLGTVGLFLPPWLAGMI
Chain of Histamine H3 receptor (Q9Y5N1 whole entry): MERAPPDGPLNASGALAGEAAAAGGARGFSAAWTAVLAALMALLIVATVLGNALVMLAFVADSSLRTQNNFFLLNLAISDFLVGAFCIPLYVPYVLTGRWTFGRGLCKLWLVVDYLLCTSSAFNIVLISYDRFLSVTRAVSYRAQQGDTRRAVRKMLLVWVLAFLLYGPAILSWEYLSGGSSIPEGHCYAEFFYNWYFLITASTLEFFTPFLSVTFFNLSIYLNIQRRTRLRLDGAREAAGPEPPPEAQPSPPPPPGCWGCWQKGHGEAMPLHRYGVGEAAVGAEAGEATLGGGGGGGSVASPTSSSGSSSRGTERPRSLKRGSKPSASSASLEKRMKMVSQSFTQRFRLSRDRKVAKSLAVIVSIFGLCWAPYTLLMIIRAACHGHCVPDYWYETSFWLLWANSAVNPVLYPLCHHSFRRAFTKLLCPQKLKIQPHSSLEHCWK
Chain of D(1A) dopamine receptor (P21728 whole entry): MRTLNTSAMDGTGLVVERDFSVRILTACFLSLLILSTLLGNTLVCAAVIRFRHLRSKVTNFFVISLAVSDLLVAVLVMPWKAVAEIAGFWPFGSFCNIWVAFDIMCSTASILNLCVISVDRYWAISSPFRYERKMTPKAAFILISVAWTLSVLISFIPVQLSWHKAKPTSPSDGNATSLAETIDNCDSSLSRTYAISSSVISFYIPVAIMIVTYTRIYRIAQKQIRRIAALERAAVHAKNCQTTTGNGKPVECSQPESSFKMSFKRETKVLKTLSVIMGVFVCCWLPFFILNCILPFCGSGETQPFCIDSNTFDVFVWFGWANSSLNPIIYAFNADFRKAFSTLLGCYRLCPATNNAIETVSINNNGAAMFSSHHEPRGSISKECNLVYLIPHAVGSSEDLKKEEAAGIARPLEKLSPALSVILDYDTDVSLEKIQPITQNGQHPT

Row | Compound | AC50 [1] [µM] | AC50 [2] [µM] | AC50 [3] [µM] | AC50 [4] [µM] | AC50 [5] [µM] | AC50 [6] [µM] | AC50 [7] [µM] | AC50 [8] [µM] | AC50 [9] [µM] | AC50 [10] [µM] | AC50 [11] [µM] | AC50 [12] [µM] | AC50 [13] [µM] | AC50 [14] [µM]
1 | CCN(CC)C(=O)C1(c2ccccc2)CC1CN (centres undefined) | > 30 | > 30 | > 30 | > 30 | > 30 | > 30 | 0.59 | > 30 | > 30 | – | – | – | – | –
2 | CN(C)C(=O)Oc1cccc([N+](C)(C)C)c1 [NEOSTIGMINE] | – | – | – | – | – | – | – | – | – | > 30 | > 30 | > 30 | > 30 | > 30

Source: ChEMBL document CHEMBL5291721, “A preclinical secondary pharmacology resource illuminates target-adverse drug reaction associations of marketed drugs” (Nat Commun, 2023)
